Consider 14 molecules from patent US20240317827A1, “LINEAR PEPTIDES INHIBITING CK2-MEDIATED PHOSPHORYLATION AND COMPOSITIONS COMPRISING SAME” (CENTRO DE INGENIERÍA GENÉTICA Y BIOTECNOLOGÍA, priority 2021, published 2024).

Assay [1] deals with NCI-H125 cell line (non-small cell lung cancer). In words: cell proliferation assay, NCI-H125 line. The assay is classed as cell-based. The procedure: The evaluation of the antiproliferative activity of polypeptides F11P13-F11P21 (SEQ ID NO: 12-SEQ ID NO: 20) was performed on the NCI-H125 cell line. […] The antiproliferative effect of the CIGB-300 peptide has been widely characterized in this line (Cirigliano S. M., et al., 2017, Cancer Cell International, 17, 42), therefore, it was selected as a positive control. Tat peptide was used as a negative control. The polypeptides were evaluated at the concentrations of 25, 50, 100 and 200 μM. The cell proliferation assay was performed by a previously described procedure (Perera Y., et al., 2012, J. Pept. Sci, 18 (4):215-23).
The 24 polypeptides identified as SEQ ID NO: 21-SEQ ID NO: 44 maintained the ability to inhibit the phosphorylation of the E7 protein of HPV-16, mediated by CK2, since phosphorylation inhibition values between 60-85% were obtained. […] Evaluation of the antiproliferative activity of synthetic polypeptides generated by positional scanning of Trp (SEQ ID NO: 21-SEQ ID NO: 44) was performed on the NCI-H125 cell line. The test was performed by the procedure previously described. (Perera Y., et al., 2012, J. Pept. Sci, 18 (4): 215-23). Precursor polypeptides (F11P19, F11P20, F11P21) and peptide CIGB-300 were included as positive controls. The polypeptides were evaluated at the concentrations of 12.5; 25; fifty; 100 and 200 μM.
(§1) The evaluation of the antiproliferative activity of synthetic polypeptides A15P35, A15P36 and A15P37 (SEQ ID NO: 46-SEQ ID NO: 48) was performed on the NCI-H125, AsPC-1, PanC-1 (pancreatic carcinoma) and OCI-AML3 (acute myeloid leukemia-3) cell lines. The test was carried out according to the procedure previously described (Perera Y, et al., 2012, J. Pept. Sci, 18 (4):215-23). […] The polypeptides A15P35, A15P36 and A15P37 were able to produce a dose-dependent effect on the proliferation of NCI-H125 cells.
Antiproliferative assays were performed on the NCI-H125, Hep2C (laryngeal carcinoma) cell lines, and on two bladder cancer lines (MGH-U3 and MGH-U4). The test was carried out according to the procedure previously described (Perera Y., et al, 2012, Pept. Sci, 18 (4):215-23).

Assay [2] relates to AsPC-1 cell line (pancreatic adenocarcinoma). Type of assay: cell-based. The conditions noted are these: Table 7; read-out: IC50 (μM) AsPC-1. On the procedure:
The cell proliferation assay was performed following the procedure previously described (Perera Y, et al., 2012, J. Pept. Sci, 18 (4):215-23).
as §1

Assay [3] relates to PanC-1 (pancreatic carcinoma) cell line. In words: cell proliferation assay, PanC-1 line. Conditions: Table 7. The assay is classed as cell-based. On the procedure: as §1
For assay [4], the system named is OCI-AML3 (acute myeloid leukemia-3) cell line. In words: cell proliferation assay, OCI-AML3 line. Type of assay: cell-based. The conditions noted are these: Table 7. On the procedure:
as §1

The test system of assay [5] is cell proliferation in vitro. The conditions noted are these: literature value; read-out: mean maximum inhibitory concentration (IC50), cell proliferation in vitro; cited from earlier work.
The target in assay [6] is phosphoacceptor site of the CK2 enzyme in the E7 protein of HPV-16 (BIOT peptide, […]) (Human papillomavirus type 16, UniProt P03129). Conditions: peptide coupled to resin; BIOT peptide 120 μg/mL; streptavidin-alkaline phosphatase, BCIP.
Protocol: For the identification of bioactive linear peptides that interact with the phosphoacceptor site of the CK2 enzyme, a combinatorial library of synthetic linear peptides named BCP-1 by type of “one-bead-one-compound” was screened, containing more than 16 million of different peptide sequences. […] Screening was performed with a biotinylated synthetic peptide, called BIOT, which contains the phosphoacceptor site of the CK2 enzyme in the E7 substrate of HPV-16 ([sequence], identified as SEQ ID NO: 63). The streptavidin-alkaline phosphatase conjugate was used as recognition molecule, and p-toluidine salt of 5-bromo-4-chloro-3-indolyl-phosphate (BCIP) was used as substrate for development. The blue color facilitates the visual differentiation of the beads containing bioactive sequences recognized by the BIOT peptide, compared to the bright light yellow color of the TentaGel resin at the BCP-1 library.
The BCP-1 library was placed in a polypropylene reactor with a vacuum filtration system and mechanical agitation. It was washed with purified water and saline phosphate buffer solution (PBS) pH 7.4; and blocked with 1% bovine serum albumin (BSA) in PBS pH 7.4 for one hour. Solvents and reagents were removed by vacuum filtration. The library was incubated with 80 mL of a BIOT peptide solution at 150 g/mL in 1% BSA in PBS pH 7.4, for 16 h at 4° C. […]
Assay [7] deals with T1, CK2-mediated phosphorylation of the HPV-16 E7 oncoprotein (Human papillomavirus type 16, UniProt P03129).
T1 construct: Glutathione S-Transferase (GST); made in house; host or cells: Escherichia coli
In words: in vitro phosphorylation reaction, E7 oncoprotein (GST fusion) as substrate. The conditions noted are these: procedure of Example 2. Type of assay: biochemical. On the procedure: The assay to measure the effect of these peptides on the CK2-mediated phosphorylation of the HPV-16 E7 oncoprotein, was based on an in vitro phosphorylation reaction, where the E7 oncoprotein of HPV-16 expressed in Escherichia coli was used as substratum. This oncoprotein was obtained as a fusion protein to Glutathione S-Transferase. The assay was performed according to the procedure previously described. (Perea S. E., et al., 2004, Cancer Res., 64: 7127-7129). The results are shown in FIG. 1, and indicate that the peptides identified as SEQ ID NO: 1-SEQ ID NO: 9 are capable of inhibiting CK2-mediated phosphorylation of the E7 protein of HPV-16.

For assay [8], the target named is T2, E7 oncoprotein of HPV-16 expressed in Escherichia coli as a fusion protein to Glutathione S-Transferase (Human Papillomavirus (HPV)-16, UniProt P03129 1-98).
T2 sequence: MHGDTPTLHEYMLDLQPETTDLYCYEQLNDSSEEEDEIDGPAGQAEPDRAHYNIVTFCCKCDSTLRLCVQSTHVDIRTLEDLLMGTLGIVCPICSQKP
The experiment in a line: cell-based or functional assay.

Where [9] appears, read: NCI-H125, read-out: IC50 (dose-effect curves).

Where two headings read alike, the source gives them in different places. Where a SMILES comes first, the peptide text is derived from it. [ ]: non-standard residue; d: D form. βAla = NCCC(=O)O

With `CC(C)C[C@H](NC(=O)[C@H](CCCNC(=N)N)NC(=O)[C@H](CCCNC(=N)N)NC(=O)[C@H](CCCCN)NC(=O)[C@H](CCCCN)NC(=O)[C@@H](NC(=O)CCNC(=O)[C@H](CCC(N)=O)NC(=O)[C@@H]1CCCN1C(=O)[C@@H]1CCCN1C(=O)[C@H](CCCNC(=N)N)NC(=O)[C@H](CCCNC(=N)N)NC(=O)[C@H](CCCNC(=N)N)NC(=O)[C@H](CCC(N)=O)NC(=O)[C@H](CCCNC(=N)N)NC(=O)[C@H](CCCNC(=N)N)NC(=O)[C@H](CCCCN)NC(=O)[C@H](CCCCN)NC(=O)[C@H](CCCNC(=N)N)NC(=O)CN)C(C)C)C(=O)N[C@@H](Cc1c[nH]c2ccccc12)C(=O)N1CCC[C@H]1C(N)=O` [A14P59, GRKKRRQRRRPPQ-βA-VKKRRLWP] (H-GRKKRRQRRRPPQ[βAla]VKKRRLWP-NH2; N-terminus and C-terminus assumed), in assay [1] (NCI-H125, Table 5, read-out: IC50), the IC50 was 140 µM. Regarding `N=C(N)NCCC[C@H](NC(=O)CN)C(=O)N[C@@H](CCCCN)C(=O)N[C@@H](CCCCN)C(=O)N[C@@H](CCCNC(=N)N)C(=O)N[C@@H](CCCNC(=N)N)C(=O)N[C@@H](CCC(N)=O)C(=O)N[C@@H](CCCNC(=N)N)C(=O)N[C@@H](CCCNC(=N)N)C(=O)N[C@@H](CCCNC(=N)N)C(=O)N1CCC[C@H]1C(=O)N1CCC[C@H]1C(=O)N[C@@H](CCC(N)=O)C(=O)NCCC(=O)N[C@@H](Cc1c[nH]c2ccccc12)C(=O)N[C@@H](CCCCN)C(=O)N[C@@H](CCCNC(=N)N)C(=O)N[C@@H](CO)C(=O)N[C@@H](CCCNC(=N)N)C(=O)N[C@@H](Cc1ccc(O)cc1)C(=O)N[C@@H](Cc1c[nH]c2ccccc12)C(=O)N1CCC[C@H]1C(N)=O` [A15P35, GRKKRRQRRRPPQ-βA-WKRSRYWP] (H-GRKKRRQRRRPPQ[βAla]WKRSRYWP-NH2; N-terminus and C-terminus assumed), the IC50 in assay [1] (Table 7, read-out: IC50 (μM) NCI-H125) turned out to be 106 µM; in assay [2], 127 µM; in assay [3], 145 µM; in assay [4], 130 µM. In the case of `O=C(O)c1ccc2c(c1)nc(Nc1cccc(Cl)c1)c1ccncc12` [CX-4945], in assay [5], the IC50 is 5.5 µM. For `N=C(N)NCCC[C@H](NC(=O)CN)C(=O)N[C@@H](CCCCN)C(=O)N[C@@H](CCCCN)C(=O)N[C@@H](CCCNC(=N)N)C(=O)N[C@@H](CCCNC(=N)N)C(=O)N[C@@H](CCC(N)=O)C(=O)N[C@@H](CCCNC(=N)N)C(=O)N[C@@H](CCCNC(=N)N)C(=O)N[C@@H](CCCNC(=N)N)C(=O)N1CCC[C@H]1C(=O)N1CCC[C@H]1C(=O)N[C@@H](CCC(N)=O)C(=O)NCCC(=O)N[C@@H](CCCNC(=N)N)C(=O)N[C@@H](CCCCN)C(=O)N[C@@H](CCCNC(=N)N)C(=O)N[C@@H](CO)C(=O)N[C@@H](CCCNC(=N)N)C(=O)N[C@@H](Cc1ccc(O)cc1)C(=O)N[C@@H](CC(=O)O)C(=O)N1CCC[C@H]1C(N)=O` [F11P19, GRKKRRQRRRPPQ-βA-RKRSRYDP] (H-GRKKRRQRRRPPQ[βAla]RKRSRYDP-NH2; N-terminus and C-terminus assumed), the IC50 in assay [1] (setting [9]) is 336 µM. With `N=C(N)NCCC[C@H](NC(=O)CN)C(=O)N[C@@H](CCCCN)C(=O)N[C@@H](CCCCN)C(=O)N[C@@H](CCCNC(=N)N)C(=O)N[C@@H](CCCNC(=N)N)C(=O)N[C@@H](CCC(N)=O)C(=O)N[C@@H](CCCNC(=N)N)C(=O)N[C@@H](CCCNC(=N)N)C(=O)N[C@@H](CCCNC(=N)N)C(=O)N1CCC[C@H]1C(=O)N1CCC[C@H]1C(=O)N[C@@H](CCC(N)=O)C(=O)NCCC(=O)NCC(=O)N[C@@H](Cc1ccc(O)cc1)C(=O)N[C@@H](CCCNC(=N)N)C(=O)N[C@@H](Cc1ccc(O)cc1)C(=O)N[C@@H](CCCCN)C(=O)N[C@@H](CCCNC(=N)N)C(=O)N[C@@H](CC(=O)O)C(=O)N1CCC[C@H]1C(N)=O` [F11P20, GRKKRRQRRRPPQ-βA-GYRYKRDP] (H-GRKKRRQRRRPPQ[βAla]GYRYKRDP-NH2; N-terminus and C-terminus assumed), the IC50 in assay [1] (setting [9]) was found to be 305 µM. For the molecule `CC(C)C[C@H](NC(=O)[C@H](CCCNC(=N)N)NC(=O)[C@H](CCCNC(=N)N)NC(=O)[C@H](CCCCN)NC(=O)[C@H](CCCCN)NC(=O)[C@@H](NC(=O)CCNC(=O)[C@H](CCC(N)=O)NC(=O)[C@@H]1CCCN1C(=O)[C@@H]1CCCN1C(=O)[C@H](CCCNC(=N)N)NC(=O)[C@H](CCCNC(=N)N)NC(=O)[C@H](CCCNC(=N)N)NC(=O)[C@H](CCC(N)=O)NC(=O)[C@H](CCCNC(=N)N)NC(=O)[C@H](CCCNC(=N)N)NC(=O)[C@H](CCCCN)NC(=O)[C@H](CCCCN)NC(=O)[C@H](CCCNC(=N)N)NC(=O)CN)C(C)C)C(=O)N[C@@H](CC(=O)O)C(=O)N1CCC[C@H]1C(N)=O` [F11P21, GRKKRRQRRRPPQ-βA-VKKRRLDP] (H-GRKKRRQRRRPPQ[βAla]VKKRRLDP-NH2; N-terminus and C-terminus assumed), the IC50 in assay [1] (setting [9]) was 668 µM. Regarding EQPAFHDP [P10], the “blue color development after enzymatic assay (interaction with the CK2 phosphoacceptor site)” value in assay [6] is listed as “did not develop blue coloration”.

Molecule RKRSRYWP [D14P165] returned a phosphorylation inhibition in assay [7] of 85%.

As to RKRSWYWP [D15P106], in assay [7], the phosphorylation inhibition is recorded as 82%. In assay [7], RKRWRYWP [D15P105] gave a phosphorylation inhibition of 87%. VAGFFLDP [P11]: the “blue color development after enzymatic assay (interaction with the CK2 phosphoacceptor site)” value in assay [6] is on record as “did not develop blue coloration”. On to RKRSRYWP [peptide D14P165 (RKRSRYWP)], for which, in assay [8], the “inhibition of CK2-mediated phosphorylation of HPV-16 E7 (in vitro phosphorylation reaction, GST-E7 substrate)” value amounted to 85%. As to RKRSWYWP [peptide D15P106 (RKRSWYWP)], the “inhibition of CK2-mediated phosphorylation of HPV-16 E7 (in vitro phosphorylation reaction, GST-E7 substrate)” value in assay [8] amounted to 82%.

In the case of RKRWRYWP [peptide D15P105 (RKRWRYWP)], the “inhibition of CK2-mediated phosphorylation of HPV-16 E7 (in vitro phosphorylation reaction, GST-E7 substrate)” value in assay [8] turned out to be 87%.
